According to ChEMBL document CHEMBL4422670, “Ac4GlcNAcF3, an OGT-tolerated but OGA-resistant regulator for O-GlcNAcylation” (Bioorg Med Chem Lett, 2019):
One block for each compound: values may come before it. Calls of active or inactive are those of the source. The calls are words filed in the database; no cut-off is given here.

What was measured:
[1] = Cytotoxicity against human MCF7 cells assessed as cell viability at 100 uM after 48 hrs by MTT assay relative to control; type: cell-based; conditions: read-out: Activity
[2] = Cytotoxicity against human HeLa cells assessed as cell viability at 10 uM after 48 hrs by MTT assay relative to control; type: cell-based; conditions: read-out: Activity
[3] = Cytotoxicity against human HeLa cells assessed as cell viability at 100 uM after 48 hrs by MTT assay relative to control; type: cell-based; conditions: read-out: Activity
[4] = Cytotoxicity against human MCF7 cells assessed as cell viability at 20 uM after 48 hrs by MTT assay relative to control; type: cell-based; conditions: read-out: Activity
[5] = Cytotoxicity against human HeLa cells assessed as cell viability at 20 uM after 48 hrs by MTT assay relative to control; type: cell-based; conditions: read-out: Activity
[6] = target: T1, Protein O-GlcNAcase (Mus musculus) (UniProt Q9EQQ9); experiment: Inhibition of OGA in mouse NIH/3T3 cells assessed as increase in O-GlcNAcylation at 20 uM after 24 hrs by Western blot analysis; type: cell-based
T1 sequence (whole entry): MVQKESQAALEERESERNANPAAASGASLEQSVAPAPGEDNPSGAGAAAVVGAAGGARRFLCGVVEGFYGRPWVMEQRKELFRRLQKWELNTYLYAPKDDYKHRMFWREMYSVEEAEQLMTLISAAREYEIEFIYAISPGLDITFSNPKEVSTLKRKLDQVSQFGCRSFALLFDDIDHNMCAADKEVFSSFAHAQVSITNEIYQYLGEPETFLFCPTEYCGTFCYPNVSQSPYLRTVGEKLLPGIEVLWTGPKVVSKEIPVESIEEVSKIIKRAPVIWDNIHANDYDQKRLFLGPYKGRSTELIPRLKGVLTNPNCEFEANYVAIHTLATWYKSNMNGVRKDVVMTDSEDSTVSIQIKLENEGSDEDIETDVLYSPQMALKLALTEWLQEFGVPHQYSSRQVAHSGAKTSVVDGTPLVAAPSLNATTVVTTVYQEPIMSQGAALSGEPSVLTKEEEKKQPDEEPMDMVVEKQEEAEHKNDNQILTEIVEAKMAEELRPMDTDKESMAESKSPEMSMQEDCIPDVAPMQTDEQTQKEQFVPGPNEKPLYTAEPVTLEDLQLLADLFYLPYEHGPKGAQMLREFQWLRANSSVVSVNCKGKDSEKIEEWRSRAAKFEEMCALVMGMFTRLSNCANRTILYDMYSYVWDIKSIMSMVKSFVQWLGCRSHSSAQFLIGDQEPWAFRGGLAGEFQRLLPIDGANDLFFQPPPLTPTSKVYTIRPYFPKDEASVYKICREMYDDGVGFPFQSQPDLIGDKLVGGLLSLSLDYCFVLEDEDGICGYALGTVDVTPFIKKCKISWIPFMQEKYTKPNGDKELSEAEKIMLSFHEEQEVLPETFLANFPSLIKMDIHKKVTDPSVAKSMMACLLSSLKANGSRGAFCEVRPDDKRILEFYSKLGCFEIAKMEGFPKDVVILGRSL

[7] = Cytotoxicity against mouse NIH/3T3 cells assessed as cell viability at 10 uM after 48 hrs by MTT assay relative to control; type: cell-based, NIH3T3; conditions: read-out: Activity
[8] = Cytotoxicity against human HepG2 cells assessed as cell viability at 10 uM after 48 hrs by MTT assay relative to control; type: cell-based; conditions: read-out: Activity
[9] = Cytotoxicity against human HepG2 cells assessed as cell viability at 5 uM after 48 hrs by MTT assay relative to control; type: cell-based; conditions: read-out: Activity
[10] = Cytotoxicity against mouse NIH/3T3 cells assessed as cell viability at 5 uM after 48 hrs by MTT assay relative to control; type: cell-based, NIH3T3; conditions: read-out: Activity
[11] = Cytotoxicity against human HeLa cells assessed as cell viability at 50 uM after 48 hrs by MTT assay relative to control; type: cell-based; conditions: read-out: Activity
[12] = Cytotoxicity against human MCF7 cells assessed as cell viability at 50 uM after 48 hrs by MTT assay relative to control; type: cell-based; conditions: read-out: Activity
[13] = Cytotoxicity against mouse NIH/3T3 cells assessed as cell viability at 100 uM after 48 hrs by MTT assay relative to control; type: cell-based, NIH3T3; conditions: read-out: Activity
[14] = Cytotoxicity against mouse NIH/3T3 cells assessed as cell viability at 20 uM after 48 hrs by MTT assay relative to control; type: cell-based, NIH3T3; conditions: read-out: Activity
[15] = Cytotoxicity against human HeLa cells assessed as cell viability at 5 uM after 48 hrs by MTT assay relative to control; type: cell-based; conditions: read-out: Activity
[16] = Cytotoxicity against human HepG2 cells assessed as cell viability at 50 uM after 48 hrs by MTT assay relative to control; type: cell-based; conditions: read-out: Activity
[17] = Cytotoxicity against mouse NIH/3T3 cells assessed as cell viability at 50 uM after 48 hrs by MTT assay relative to control; type: cell-based, NIH3T3; conditions: read-out: Activity
[18] = Cytotoxicity against human HepG2 cells assessed as cell viability at 100 uM after 48 hrs by MTT assay relative to control; type: cell-based; conditions: read-out: Activity
Mus musculus = species on record: Mus musculus; experiment: Modulation of OGT/OGA in mouse NIH/3T3 cells assessed as increase in O-GlcNAcylation at 5 to 100 uM by Western blot analysis; type: cell-based
[19] = Cytotoxicity against human HepG2 cells assessed as cell viability at 20 uM after 48 hrs by MTT assay relative to control; type: cell-based; conditions: read-out: Activity
[20] = Cytotoxicity against human MCF7 cells assessed as cell viability at 5 uM after 48 hrs by MTT assay relative to control; type: cell-based; conditions: read-out: Activity
[21] = Cytotoxicity against human MCF7 cells assessed as cell viability at 10 uM after 48 hrs by MTT assay relative to control; type: cell-based; conditions: read-out: Activity
[22] = Inhibition of lysosomal hexosaminidase (unknown origin); parameters: species or system Homo sapiens

inhibition [6]: Active
Structure (SMILES): CC(=O)OC[C@H]1OC(OC(C)=O)[C@H](NC(=O)C(F)(F)F)[C@@H](OC(C)=O)[C@@H]1OC(C)=O (stereo not given in full)
viability at 48 h, 100 µM [1]: 90.5% | viability at 48 h, 10 µM [2]: 96.2% | viability at 48 h, 100 µM [3]: 76.1% | viability at 48 h, 20 µM [4]: 97.1% | viability at 48 h, 20 µM [5]: 96% | viability at 48 h, 10 µM [7]: 94.1% | viability at 48 h, 10 µM [8]: 94.7% | viability at 48 h, 5 µM [9]: 96.9% | viability at 48 h, 5 µM [10]: 97.6% | viability at 48 h, 50 µM [11]: 84.1% | viability at 48 h, 50 µM [12]: 96.4% | viability at 48 h, 100 µM [13]: 35.9% | viability at 48 h, 20 µM [14]: 85.6% | viability at 48 h, 5 µM [15]: 101% | viability at 48 h, 50 µM [16]: 91.2% | viability at 48 h, 50 µM [17]: 61.3% | viability at 48 h, 100 µM [18]: 84.9% | Activity (Mus musculus): Active | viability at 48 h, 20 µM [19]: 94.2% | viability at 48 h, 5 µM [20]: 98.3% | viability at 48 h, 10 µM [21]: 97.4%

Ki [22]: 30 to 40 nM | inhibition [6]: Active
Structure (SMILES): CC(=O)N[C@H]1/C(=N/OC(=O)Nc2ccccc2)O[C@H](CO)[C@@H](O)[C@@H]1O [PUGNAC]

inhibition [6]: Active
Structure (SMILES): CCNC1=N[C@@H]2[C@@H](O)[C@H](O)[C@@H](CO)O[C@@H]2S1
